Assay results reported in US20020137929A1, “1 - (3-heterocyclylphenyl) isothiourea, -isourea, -guanidine and -amidine herbicidal agents” (Intellectual Property Department, BASF Aktiengesellschaft, priority 1998, published 2002).

Columns and labels:
AMBEL (Ragweed, Common) = assay: Postemergence herbicidal evaluation; assay type: in vivo, Ambrosia artemisifolia; conditions: postemergence
In short: (§1)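 Herbicidal effect was judged by eye on a 0–9 scale covering stand, vigor, deformity, size and chlorosis, compared with controls, four to five weeks after seedlings about two weeks old were sprayed (40 psi, ~0.0156–0.500 kg/ha).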

CASOB (Sicklepod) = assay: Postemergence herbicidal evaluation; assay type: in vivo, Cassia obtusifolia; conditions: postemergence
In short: as §1

GALAP (Galium) [1] = assay: Postemergence herbicidal evaluation; assay type: in vivo, Galium aparine; conditions: postemergence
In short: as §1

[2] = test system: GLXMAW (Soybean, Williams); assay: Postemergence herbicidal evaluation; assay type: in vivo, Glycine max, (L.) Merr. cv Williams; conditions: postemergence
In short: as §1

[3] = test system: TRZAWR (Wheat, Winter, cv Riband); assay: Postemergence herbicidal evaluation; assay type: in vivo, Triticum aestivum; conditions: postemergence
In short: as §1

GALAP (Galium) [4] = assay: Preemergence herbicidal evaluation; assay type: in vivo, Galium aparine; conditions: rated 4-5 weeks after treatment; for GALAP rating: preemergence, 0-9 scale
In short: (§2)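 Visual 0-9 rating vs control (stand, vigor, malformation, size, chlorosis, overall appearance), scored 4-5 wk after spraying. Seeded soil cups were treated preemergence with compound in aqueous acetone, ~0.0156-0.500 kg/ha equivalent.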

SETVI (Foxtail, Green) = assay: Preemergence herbicidal evaluation; assay type: in vivo, Setaria viridis; conditions: rated 4-5 weeks after treatment; for SETVI rating: preemergence, 0-9 scale
In short: as §2

ORYSAT (Rice, Tebonnet) = assay: Preemergence herbicidal evaluation; assay type: in vivo, Oryza sativa, (L.) Tebonnet; conditions: rated 4-5 weeks after treatment; for ORYSAT rating: preemergence, 0-9 scale
Source text: Results of herbicide evaluation are expressed on a rating scale (0-9). The scale is based upon a visual observation of plant stand, vigor, malformation, size, chlorosis and overall plant appearance as compared with a control.
The preemergence herbicidal activity of the test compounds of the present invention is exemplified by the following tests in which the seeds of a variety of monocotyledonous and dicotyledonous plants are separately mixed with potting soil and planted on top of approximately one inch of soil in separate pint cups. After planting, the cups are sprayed with the selected aqueous acetone solution containing test compound in sufficient quantity to provide the equivalent of about 0.0156 to 0.500 kg per hectare of test compound per cup. The treated cups are then placed on greenhouse benches, watered and cared for in accordance with conventional greenhouse procedures. From four to five weeks after treatment, the tests are terminated and each cup is examined and rated according to the rating system provided in Example 37.
The compounds evaluated are reported by compound number given in Example 37.

[5] = test system: ECHORC (Watergrass (Calif.)); assay: Preemergence weed control under flooded paddy conditions; assay type: in vivo, Echinochloa oryzoides; conditions: rated 3-4 weeks after treatment
In short: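 Ratings on a 0-9 visual scale cover stand, vigor, malformation, size, chlorosis and overall appearance relative to a control, taken three to four weeks post-treatment. Application was into flood water over freshly sown silt loam at roughly 0.0313 to 0.500 kg/ha.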

CYPSE (Flatsedge) = assay: as above; assay type: in vivo, Cyperus serotinus; conditions: rated 3-4 weeks after treatment
In short: (§3)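 Silt loam, seeds in top 0.5 cm; flood held 1.5-3 cm; test cpd as acetone/water 50/50 into flood water, ~0.0313-0.500 kg/ha a.i.; greenhouse 3-4 wk; visual 0-9 score vs control.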

MOOVA (Monochoria) = assay: as above; assay type: in vivo, Monochoria vaginalis; conditions: rated 3-4 weeks after treatment
In short: as §3

[6] = test system: SAGPY (Arrowhead (Pygmaea)); assay: as above; assay type: in vivo, Sagittaria pygmaea; conditions: rated 3-4 weeks after treatment
In short: as §3

In the case of `C=CCOC(=O)CN1C(=O)CSC1=Nc1cc(-n2c(=O)cc(C(F)(F)F)n(C)c2=O)c(F)cc1Cl` [Compound 106, Allyl 2-{{2-chloro-5-[3,6-dihydro-3-methyl-2,6-dioxo-4-(trifluoromethyl)-1(2H)-pyrimidinyl]-4-fluorophenyl}imino}-4-oxo-3-thiazolidineacetate], the “herbicidal rating AMBEL” value (AMBEL (Ragweed, Common); rate 0.0158 kg/ha) is reported as 7.0, the “herbicidal rating AMBEL” value (AMBEL (Ragweed, Common); rate 0.0315 kg/ha) is reported as 7.0 and the “herbicidal rating AMBEL” value (AMBEL (Ragweed, Common); rate 0.0630 kg/ha) is reported as 9.0. The “herbicidal rating CASOB” value (CASOB (Sicklepod); rate 0.0158 kg/ha) was 1.0, the “herbicidal rating CASOB” value (CASOB (Sicklepod); rate 0.0315 kg/ha) was 1.0 and the “herbicidal rating CASOB” value (CASOB (Sicklepod); rate 0.0630 kg/ha) was 3.0. For the same molecule, the “herbicidal rating GALAP” value (GALAP (Galium) [1]; rate 0.0158 kg/ha) was 1.0, the “herbicidal rating GALAP” value (GALAP (Galium) [1]; rate 0.0315 kg/ha) was 1.0 and the “herbicidal rating GALAP” value (GALAP (Galium) [1]; rate 0.0630 kg/ha) was 1.0. The “herbicidal rating GLXMAW” value ([2]; rate 0.0158 kg/ha) was 4.5, the “herbicidal rating GLXMAW” value ([2]; rate 0.0315 kg/ha) was 5.5 and the “herbicidal rating GLXMAW” value ([2]; rate 0.0630 kg/ha) was 6.0. For the same molecule, the “herbicidal rating TRZAWR” value ([3]; rate 0.0158 kg/ha) was 2.5, the “herbicidal rating TRZAWR” value ([3]; rate 0.0315 kg/ha) was 3.0 and the “herbicidal rating TRZAWR” value ([3]; rate 0.0630 kg/ha) was 4.5. For the same molecule, the GALAP rating (GALAP (Galium) [4]; 0.0313 kg/ha) was 2.0, the GALAP rating (GALAP (Galium) [4]; 0.0625 kg/ha) was 3.0 and the GALAP rating (GALAP (Galium) [4]; 0.1250 kg/ha) was 6.0. For the same molecule, the GALAP rating (GALAP (Galium) [4]; 0.2500 kg/ha) was 7.0, the “Preemergence herbicidal rating GALAP” value (GALAP (Galium) [4]; rate 0.0156 kg/ha) was 1.0 and the SETVI rating (SETVI (Foxtail, Green); 0.0313 kg/ha) was 0.5. It also gave an SETVI rating (SETVI (Foxtail, Green); 0.0625 kg/ha) of 4.5, an SETVI rating (SETVI (Foxtail, Green); 0.1250 kg/ha) of 9.0 and an SETVI rating (SETVI (Foxtail, Green); 0.2500 kg/ha) of 9.0. For the same molecule, the “Preemergence herbicidal rating SETVI” value (SETVI (Foxtail, Green); rate 0.0156 kg/ha) was 0.0, the ORYSAT rating (ORYSAT (Rice, Tebonnet); 0.0313 kg/ha) was 1.0 and the ORYSAT rating (ORYSAT (Rice, Tebonnet); 0.0625 kg/ha) was 2.0. For the same molecule, the ORYSAT rating (ORYSAT (Rice, Tebonnet); 0.1250 kg/ha) was 2.5, the ORYSAT rating (ORYSAT (Rice, Tebonnet); 0.2500 kg/ha) was 5.0 and the “Preemergence herbicidal rating ORYSAT” value (ORYSAT (Rice, Tebonnet); rate 0.0156 kg/ha) was 1.5. The “ECHORC herbicidal effect rating” value ([5]; 0.0313 kg/ha) was 2.0, the “ECHORC herbicidal effect rating” value ([5]; 0.0625 kg/ha) was 4.0 and the “ECHORC herbicidal effect rating” value ([5]; 0.1250 kg/ha) was 5.0. The “ECHORC herbicidal effect rating” value ([5]; 0.2500 kg/ha) was 7.0, the “CYPSE herbicidal effect rating” value (CYPSE (Flatsedge); 0.0313 kg/ha) was 0.0 and the “CYPSE herbicidal effect rating” value (CYPSE (Flatsedge); 0.0625 kg/ha) was 0.0. The “CYPSE herbicidal effect rating” value (CYPSE (Flatsedge); 0.1250 kg/ha) was 2.0, the “CYPSE herbicidal effect rating” value (CYPSE (Flatsedge); 0.2500 kg/ha) was 6.0 and the “MOOVA herbicidal effect rating” value (MOOVA (Monochoria); 0.0313 kg/ha) was 9.0. The “MOOVA herbicidal effect rating” value (MOOVA (Monochoria); 0.0625 kg/ha) was 9.0, the “MOOVA herbicidal effect rating” value (MOOVA (Monochoria); 0.1250 kg/ha) was 9.0 and the “MOOVA herbicidal effect rating” value (MOOVA (Monochoria); 0.2500 kg/ha) was 9.0. For the same molecule, the “SAGPY herbicidal effect rating” value ([6]; 0.0313 kg/ha) was 3.0, the “SAGPY herbicidal effect rating” value ([6]; 0.0625 kg/ha) was 4.0 and the “SAGPY herbicidal effect rating” value ([6]; 0.1250 kg/ha) was 5.0. For the same molecule, the “SAGPY herbicidal effect rating” value ([6]; 0.2500 kg/ha) was 7.0.
With `COCCOC(=O)CN1C(=O)CSC1=Nc1cc(-n2c(=O)cc(C(F)(F)F)n(C)c2=O)c(F)cc1Cl` [Compound 107, 2-Methoxyethyl 2-{{2-chloro-5-[3,6-dihydro-3-methyl-2,6-dioxo-4-(trifluoromethyl)-1(2H)-pyrimidinyl]-4-fluorophenyl}imino}-4-oxo-3-thiazolidineacetate] the “herbicidal rating AMBEL” value (AMBEL (Ragweed, Common); rate 0.0158 kg/ha) was 2.0, the “herbicidal rating AMBEL” value (AMBEL (Ragweed, Common); rate 0.0315 kg/ha) was 2.0 and the “herbicidal rating AMBEL” value (AMBEL (Ragweed, Common); rate 0.0630 kg/ha) was 2.0. The “herbicidal rating CASOB” value (CASOB (Sicklepod); rate 0.0158 kg/ha) was 0.0, the “herbicidal rating CASOB” value (CASOB (Sicklepod); rate 0.0315 kg/ha) was 0.0 and the “herbicidal rating CASOB” value (CASOB (Sicklepod); rate 0.0630 kg/ha) was 0.0. The “herbicidal rating GALAP” value (GALAP (Galium) [1]; rate 0.0158 kg/ha) was 0.0, the “herbicidal rating GALAP” value (GALAP (Galium) [1]; rate 0.0315 kg/ha) was 0.0 and the “herbicidal rating GALAP” value (GALAP (Galium) [1]; rate 0.0630 kg/ha) was 0.0. For the same molecule, the “herbicidal rating GLXMAW” value ([2]; rate 0.0158 kg/ha) was 4.5, the “herbicidal rating GLXMAW” value ([2]; rate 0.0315 kg/ha) was 5.0 and the “herbicidal rating GLXMAW” value ([2]; rate 0.0630 kg/ha) was 5.5. The “herbicidal rating TRZAWR” value ([3]; rate 0.0158 kg/ha) was 2.0, the “herbicidal rating TRZAWR” value ([3]; rate 0.0315 kg/ha) was 3.0 and the “herbicidal rating TRZAWR” value ([3]; rate 0.0630 kg/ha) was 5.0. The “Preemergence herbicidal rating GALAP” value (GALAP (Galium) [4]; rate 0.0313 kg/ha) was 1.0, the “Preemergence herbicidal rating GALAP” value (GALAP (Galium) [4]; rate 0.0625 kg/ha) was 1.0 and the “Preemergence herbicidal rating GALAP” value (GALAP (Galium) [4]; rate 0.1250 kg/ha) was 7.0. For the same molecule, the “Preemergence herbicidal rating GALAP” value (GALAP (Galium) [4]; rate 0.2500 kg/ha) was 7.0, the “Preemergence herbicidal rating SETVI” value (SETVI (Foxtail, Green); rate 0.0313 kg/ha) was 0.0 and the “Preemergence herbicidal rating SETVI” value (SETVI (Foxtail, Green); rate 0.0625 kg/ha) was 1.0. The “Preemergence herbicidal rating SETVI” value (SETVI (Foxtail, Green); rate 0.1250 kg/ha) was 0.0, the “Preemergence herbicidal rating SETVI” value (SETVI (Foxtail, Green); rate 0.2500 kg/ha) was 7.0 and the “Preemergence herbicidal rating ORYSAT” value (ORYSAT (Rice, Tebonnet); rate 0.0313 kg/ha) was 0.0. The “Preemergence herbicidal rating ORYSAT” value (ORYSAT (Rice, Tebonnet); rate 0.0625 kg/ha) was 0.0, the “Preemergence herbicidal rating ORYSAT” value (ORYSAT (Rice, Tebonnet); rate 0.1250 kg/ha) was 0.0 and the “Preemergence herbicidal rating ORYSAT” value (ORYSAT (Rice, Tebonnet); rate 0.2500 kg/ha) was 2.0. For the same molecule, the “ECHORC herbicidal effect rating” value ([5]; 0.0313 kg/ha) was 0.0, the “ECHORC herbicidal effect rating” value ([5]; 0.0625 kg/ha) was 4.0 and the “ECHORC herbicidal effect rating” value ([5]; 0.1250 kg/ha) was 4.0. For the same molecule, the “ECHORC herbicidal effect rating” value ([5]; 0.2500 kg/ha) was 4.0, the “CYPSE herbicidal effect rating” value (CYPSE (Flatsedge); 0.0313 kg/ha) was 0.0 and the “CYPSE herbicidal effect rating” value (CYPSE (Flatsedge); 0.0625 kg/ha) was 0.0. The “CYPSE herbicidal effect rating” value (CYPSE (Flatsedge); 0.1250 kg/ha) was 0.0, the “MOOVA herbicidal effect rating” value (MOOVA (Monochoria); 0.0313 kg/ha) was 4.0 and the “MOOVA herbicidal effect rating” value (MOOVA (Monochoria); 0.0625 kg/ha) was 6.0. For the same molecule, the “MOOVA herbicidal effect rating” value (MOOVA (Monochoria); 0.1250 kg/ha) was 7.0, the “MOOVA herbicidal effect rating” value (MOOVA (Monochoria); 0.2500 kg/ha) was 9.0 and the “SAGPY herbicidal effect rating” value ([6]; 0.0313 kg/ha) was 0.0. The “SAGPY herbicidal effect rating” value ([6]; 0.0625 kg/ha) was 0.0, the “SAGPY herbicidal effect rating” value ([6]; 0.1250 kg/ha) was 0.0 and the “SAGPY herbicidal effect rating” value ([6]; 0.2500 kg/ha) was 3.0.
